For one data set, the system named is 4T1 cells. Put plainly: Orthotopic 4T1 breast cancer model with tumor resection, survival study (Example 3, paclitaxel combination). In kind it is in vivo, BALB/c mice. Conditions: day 38; Compound of Formula I 60 mg/kg PO BID; Paclitaxel 6 mg/kg IP Q2D; orthotopic tumors resected 13 days after inoculation; n=10. The procedure: Experimental animals: 50 BALB/c mice, female, 6 to 8 weeks old, weighing 18 to 20 g. Zhejiang Vital River Laboratory Animal Technology Co., Ltd., Tongxiang Branch (SCKX (Zhejiang) 2021-0006); Certificate No.: 20220728Abzz0600000694.
Drugs: Compound of Formula I, manufacturer: Pharmaron (Tianjin) Process Development and Manufacturing Co., Ltd., batch number: TJ-MAX-10181-A-2; Paclitaxel (6 mg/mL), manufacturer: Corden Pharma Latina S.P.A., batch number: 2D07013.
Murine 4T1 cells were grown adherently in vitro under culture conditions of RPMI-1640 medium supplemented with 10% heat-inactivated fetal bovine serum at 37°C with 5% CO2. Cells were passaged 2 to 3 times per week. When the cells were in the exponential growth phase, the cells were harvested, counted, and inoculated into the fourth fat pad on the left abdomen of BALB/c mice.
50 µL of 1 × 10^5 4T1 cell suspension was inoculated into the fourth fat pad on the left abdomen of BALB/c mice. […]
The experimental indicators were examined to determine whether tumor growth could be inhibited, delayed, or cured. Tumors were measured three times per week using a digital vernier caliper. The tumor volume was calculated using the formula: V = 0.5a × b^2, where a and b represent the long and short diameters of the tumor, respectively. […]

A further data set concerns GL-261-luc cells. Put plainly: Mouse glioma GL-261-luc brain orthotopic xenograft tumor model, pharmacodynamics and survival (Example 4, temozolomide combination). In kind it is in vivo, C57 BL/6 mice. The note with it: Compound of Formula I 120 mg/kg PO BID, TMZ 7.5 mg/kg IP BIW. The procedure: Experimental animals: 57 C57 BL/6 mice, female, 6 to 8 weeks old, weighing 16 to 20 g, purchased from Shanghai Jihui Laboratory Animal Care Co., Ltd.
Drugs: Compound of Formula I [drawing 5] manufacturer: Pharmaron (Tianjin) Process Development and Manufacturing Co., Ltd., batch number: TJ-MAX-10181-A-2; TMZ (Temozolomide), manufacturer: Shanghai Aladdin Biochemical Technology Co., Ltd., batch number: J2227749.
Murine GL-261-luc cells were grown adherently in vitro under culture conditions of DMEM medium supplemented with 10% heat-inactivated fetal bovine serum and 0.6 mg/mL G418 (stock concentration: 100 mg/mL), at 37°C with 5% CO2. Cells were passaged 2 to 3 times per week. When cells were in the exponential growth phase, the cells were harvested, counted, and inoculated into the right caudate nucleus of C57 BL/6 mice.
GL-261-luc cells in logarithmic growth phase were harvested at full confluence with viability guaranteed 90% or more. Mice were anesthetized via intraperitoneal injection of 41.6 mg/kg Zoletil according to body weight. 1 × 10^5/2 µL/mouse cells was orthotopically inoculated into the right caudate nucleus of each mouse, and the skin was sutured with 4/0 suture. After recovery, mice were returned to their cages. 4 days after inoculation, mice were imaged and grouped using the IVIS Lumina XR small animal imager. Fluorescence signal intensity was used for stratified randomization into 4 groups (9 mice per group). Administration began on the day of grouping, with daily weight monitoring and observation of mouse growth status. Mice were imaged twice weekly. Table 11: Animal Experiment Grouping and Administration Regimen
The experimental indicators were examined to determine whether tumor growth could be inhibited, delayed, or cured. According to the experimental design, tumor growth was monitored by imaging mice using the IVIS Lumina XR small animal imager. The tumor growth inhibition efficacy of the compounds was evaluated using TGI (Tumor Growth Inhibition), where TGI (%) = [1 - (TFtreatment-Dn - TFtreatment-D0) / (TFcontrol-Dn - TFcontrol-D0)] × 100% (where TFtreatment-D0 represents the fluorescence signal intensity of the treatment group on day 0, TFcontrol-D0 represents the fluorescence signal intensity of the control group on day 0; TFtreatment-Dn represents the fluorescence signal intensity of the treatment group on day n, and TFcontrol-Dn represents the fluorescence signal intensity of the control group on day n). The calculation formula for an increase in life span (ILS) is: ILS = (MSTTreatment - MSTControl) / MSTControl × 100% (where MSTTreatment is the median survival days for the treatment group, and MSTControl is the median survival days for the control group).
Tumor size was analyzed using the statistical software GraphPad Prism based on fluorescence signal intensity values. Two-way ANOVA was used to compare whether there were significant differences in fluorescence signal intensity between the control group and each treatment group, with p < 0.05 considered statistically significant and p < 0.01 considered highly statistically significant.

Regarding `Cc1c(/C=C/c2cc(CN[C@@](C)(CO)C(=O)O)ccc2C(F)(F)F)cccc1-c1ccccc1` [Compound of Formula I], the “survival rate of mice” value with 4T1 cells was 0%. Moreover, the “TGI (%)/Day 14” value in the data set on GL-261-luc cells (Day 14, based on fluorescence signal intensity vs vehicle control) was 40.52%. Further, the “Total Fluorescence Intensity at the End of the Experiment/Day 14” value in the data set on GL-261-luc cells (Day 14) is 1.18E + 09 p/s. The “Total Fluorescence Intensity at the Beginning of the Experiment/Day 0” value in the data set on GL-261-luc cells (baseline Day 0) is on record as 2.75E + 07 p/s. The “mice showed > 10% body weight loss” value with GL-261-luc cells (by day 14 of administration, 9 mice per group) is recorded as 2 mice. Also, in the data set with GL-261-luc cells (mean, n=9), the “Body Weight of Animals at the End of the Experiment” value was determined as 18.29 g and the “Relative Body Weight Change of Animals at the End of the Experiment” value is given as -3.08%. Further, the “Body Weight of Animals at the Beginning of the Experiment” value in the data set on GL-261-luc cells (mean, n=9, baseline) is recorded as 18.89 g. In addition, the “increase in life span (ILS)” value with GL-261-luc cells (median survival vs vehicle control, end of experiment) was determined as 20%.

These data come from patent EP4736876A1, “DRUG COMBINATION CONTAINING PD-L1 SMALL MOLECULE INHIBITOR AND USE THEREOF” (Beijing Maxinovel Pharmaceuticals Co., Ltd., priority 2023, dated 2025).
